{"source": "paper PMC3115021", "about": "“Dynamics of Cdk1 Substrate Specificity during the Cell Cycle” (Molecular Cell, 2011)", "key": {"[1]": {"target": "T1, Clb2-Cdk1 (Saccharomyces cerevisiae, UniProt P00546+P24869)", "T1 construct": "We purified the four cyclin-Cdk1 complexes from yeast; made in house; host or cells: S. cerevisiae strain DOM0077 (gal-CLB2-TAP, sic1 deleted); Cks1 from bacteria", "T1 sequence (P00546 2-298 limits assumed)": "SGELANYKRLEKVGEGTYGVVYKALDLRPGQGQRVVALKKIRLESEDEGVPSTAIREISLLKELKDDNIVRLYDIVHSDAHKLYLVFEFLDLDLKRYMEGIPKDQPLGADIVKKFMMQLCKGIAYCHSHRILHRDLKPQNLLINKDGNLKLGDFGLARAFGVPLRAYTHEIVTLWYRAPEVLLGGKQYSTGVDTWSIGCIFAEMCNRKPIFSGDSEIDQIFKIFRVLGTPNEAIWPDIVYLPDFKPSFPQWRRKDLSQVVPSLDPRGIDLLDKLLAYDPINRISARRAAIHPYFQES", "T1 sequence (P24869 2-491 partner limits assumed)": "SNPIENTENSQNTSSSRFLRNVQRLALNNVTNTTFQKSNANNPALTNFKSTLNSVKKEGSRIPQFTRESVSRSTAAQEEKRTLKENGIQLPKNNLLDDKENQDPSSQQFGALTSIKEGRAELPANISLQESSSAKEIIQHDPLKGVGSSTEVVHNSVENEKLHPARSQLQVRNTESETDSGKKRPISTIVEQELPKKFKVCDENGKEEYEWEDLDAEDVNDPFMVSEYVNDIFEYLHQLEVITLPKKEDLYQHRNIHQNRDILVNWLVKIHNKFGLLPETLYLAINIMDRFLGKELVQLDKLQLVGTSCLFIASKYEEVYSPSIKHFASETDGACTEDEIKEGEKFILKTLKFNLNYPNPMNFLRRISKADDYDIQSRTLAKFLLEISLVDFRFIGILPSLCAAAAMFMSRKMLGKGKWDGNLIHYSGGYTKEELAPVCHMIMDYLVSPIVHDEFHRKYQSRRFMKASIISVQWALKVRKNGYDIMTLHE", "T1 sequence (P20486 whole entry partner)": "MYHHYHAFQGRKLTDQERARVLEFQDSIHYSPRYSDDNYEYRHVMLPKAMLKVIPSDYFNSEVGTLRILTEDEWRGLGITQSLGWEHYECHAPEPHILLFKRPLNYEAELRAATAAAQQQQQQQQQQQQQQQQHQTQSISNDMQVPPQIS", "conditions": "higher specificity for mitotic Clb2-Cdk1 than S phase Clb5-Cdk1; ref Loog and Morgan, 2005; cited from earlier work", "source_text": "To study how different cyclins modulate the substrate specificity of Cdk1, we performed a quantitative analysis of yeast Cdk1 specificity in complex with each of four cyclins: the G1/S cyclin Cln2, the S phase triggering cyclin Clb5, the G2/M cyclin Clb3, and the mitotic cyclin Clb2. The cellular levels of these four cyclins peak in sequence over the course of the cell cycle (Figure 1A). We purified the four cyclin-Cdk1 complexes from yeast (Figure 1D) and analyzed their kinetic properties with a commonly used optimal model substrate for Cdk1, a peptide derived from the general substrate Histo ..."}, "[2]": {"target": "Cln1-Cdk1 (Saccharomyces cerevisiae, UniProt P00546+P20437)", "sequence (P00546 2-298 limits assumed)": "as the sequence (P00546 2-298 limits assumed) above", "sequence (P20437 whole entry partner)": "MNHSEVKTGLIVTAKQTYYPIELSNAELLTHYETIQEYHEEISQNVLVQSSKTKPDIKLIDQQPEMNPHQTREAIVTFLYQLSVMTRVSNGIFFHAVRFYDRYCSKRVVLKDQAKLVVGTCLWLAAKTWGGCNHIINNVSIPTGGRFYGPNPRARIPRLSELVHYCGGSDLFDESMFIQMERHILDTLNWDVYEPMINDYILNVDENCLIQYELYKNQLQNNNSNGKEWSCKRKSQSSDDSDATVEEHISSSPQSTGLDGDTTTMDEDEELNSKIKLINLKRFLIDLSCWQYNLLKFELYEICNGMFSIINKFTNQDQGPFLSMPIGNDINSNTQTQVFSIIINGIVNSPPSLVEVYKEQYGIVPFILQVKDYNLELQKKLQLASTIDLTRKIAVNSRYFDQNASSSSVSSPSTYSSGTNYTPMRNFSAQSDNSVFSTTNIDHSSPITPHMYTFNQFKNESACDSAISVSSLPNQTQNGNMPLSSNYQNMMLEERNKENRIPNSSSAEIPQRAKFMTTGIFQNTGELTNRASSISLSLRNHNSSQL", "sequence (P20486 whole entry partner)": "as the sequence (P20486 whole entry partner) above", "experiment": "Peptide kinetics with the model substrate (data not shown)", "type": "biochemical", "description": "(§1) The four major cyclin-Cdk1 complexes used in our experiments seem sufficient for describing\n(§2) the general dynamic changes of Cdk1 specificity during the cell cycle, as the rest of the cyclins,\n(§3) Clb1 and Clb4 (Grandin and Reed, 1993) as well as Cln3 and Clb6 (Cross et al., 2002; Tyers et\n(§4) al., 1993) are less abundant and therefore minor contributors to the total concentration of\n(§5) activated Cdk1, and most likely would not yield significant changes to the general model. In\n(§6) an intermediate KM (210 μM) for the model substrate (data not shown). However, due to poor\n(§7) purification yields, this kinase was excluded from detailed analysis. Additionally, the other G1\n(§8) towards the peptide substrate (KM > 1 mM, data not shown).\n(§9) Our findings have raised an intriguing question of how cyclins can change the specificity\n(§10) of the Cdk1 active site, so that its ability to bind and phosphorylate the consensus site motif is\n(§11) altered. These cyclin-specific effects could be due to specific conformational changes induced by\n(§12) cyclin in the Cdk1 molecule, resulting in altered accessibility and configuration of its active site.\n(§13) of Swe1 to phosphorylate different cyclin-Cdk1 complexes at the active site-gating Y19 residue.\n(§14) The other gradually changing feature, the relative differences in RXL-dependent docking\n(§15) mechanisms among the B-type cyclin-Cdk1s, could also be due to different specific […]"}, "[3]": {"target": "T2, Clb4-Cdk1 (Saccharomyces cerevisiae, UniProt P00546+P24871)", "T2 construct": "made in house", "T2 sequence (P00546 2-298 limits assumed)": "as the sequence (P00546 2-298 limits assumed) above", "T2 sequence (P24871 whole entry partner)": "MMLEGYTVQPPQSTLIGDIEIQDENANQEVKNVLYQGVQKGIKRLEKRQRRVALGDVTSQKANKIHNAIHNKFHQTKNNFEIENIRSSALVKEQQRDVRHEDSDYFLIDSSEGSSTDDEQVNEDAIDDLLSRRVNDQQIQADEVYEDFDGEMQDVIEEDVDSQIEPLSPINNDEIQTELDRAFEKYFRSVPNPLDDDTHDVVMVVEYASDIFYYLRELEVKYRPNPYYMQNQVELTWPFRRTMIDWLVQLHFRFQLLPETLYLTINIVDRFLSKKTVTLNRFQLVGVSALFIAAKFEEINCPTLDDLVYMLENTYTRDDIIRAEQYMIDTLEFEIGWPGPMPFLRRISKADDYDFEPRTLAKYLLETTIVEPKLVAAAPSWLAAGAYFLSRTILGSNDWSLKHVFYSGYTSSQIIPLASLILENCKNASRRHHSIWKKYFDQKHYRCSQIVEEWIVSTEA", "T2 sequence (P20486 whole entry partner)": "as the sequence (P20486 whole entry partner) above", "experiment": "Peptide kinetics with the model substrate (data not shown)", "type": "biochemical", "description": "as §1, §2, §3, §4, §5, §6, §7, §8, §9, §10, §11, §12, §13, §14, §15"}}}
{"sequence": "PKTPKKAKKL [optimal model substrate for Cdk1, a peptide derived from the general substrate Histone H1]", "values": [{"measurement": "specificity for Clb2-Cdk1 as compared with Clb5-Cdk1", "setting": "[1]", "result": "about 20 fold"}, {"measurement": "Km", "setting": "[2]", "result": "> 1000", "unit": "µM"}, {"measurement": "Km", "setting": "[3]", "result": 210, "unit": "µM"}]}
